Consider 18 molecules from PMC12529149, “Chemical and Antiplasmodial Investigations on Carapa-Derived Gedunin Derivatives and Semisynthetic 6- and 7‑Substituted Gedunin Analogues from the Brazilian Amazon” (ACS Omega, 2025).

The subject of one series is P. falciparum. Details: method as in literature (number not shown). The following applies: strain not stated, ref literature (number not shown), cited from earlier work.
The subject of a further series is P. falciparum D6 strain. Also noted: method as in literature (numbers not shown). Conditions: ref literature (numbers not shown); cited from earlier work.
For the next series, the system named is P. falciparum W2 strain. Details: method as in literature (numbers not shown). Conditions: ref literature (numbers not shown); cited from earlier work.
Series [1] deals with P. falciparum FCR3 strain. Details: method as in literature (numbers not shown). The following applies: ref literature (numbers not shown); cited from earlier work.
Series [2] deals with mouse mammary carcinoma (FM3A) cell cultures. Details: method as in literature (number not shown). Conditions: ref literature (number not shown); cited from earlier work.
Series [3] relates to K1 strain of Plasmodium falciparum. As to the kind of experiment: In vitro susceptibility assay (microtest), P. falciparum K1 growth inhibition. The series is classed as cell-based. Conditions: Plasmodium falciparum, K1, 48 h. The procedure: In vitro culture of the K1 strain of P. falciparum (MRA-159, MR4, ATCC, Manassas, Virginia, USA) proceeded following an established method with modifications. Briefly, this method involved the growth of parasites in human type A+ red blood cells and RPMI 1640 medium supplemented with 10% type A+ human plasma at 37 °C under an atmosphere of 5% O2, 5% CO2, and 90% N2.
As initial condition for the susceptibility assay, cultures were synchronized by treatment with 5% D-sorbitol, which provided young trophozoites (ring stages). Performance of the microtest followed a previously described procedure with modifications. Compounds were dissolved in DMSO with the aid of an ultrasound bath to provided stock solutions. […] These diluted samples were evaluated in duplicate in a 96-well test plate. A suspension of parasitized red blood cells (pRBCs) at 2% hematocrit and 1% parasitemia was added to each well. Microplate incubation proceeded for 48 h at 37 °C under the same atmosphere used for parasite culture in two independent experiments conducted on different days. Control wells contained chloroquine (0.003–2.5 μg/mL) and quinine (0.003–2.5 μg/mL). Six (6) control (blank) wells were prepared with pRBCs suspension. Six cosolvent control wells were prepared with 1% DMSO and pRBCs suspension. An average of these 12 controls defined drug-free (untreated) growth. After the incubation period, thin blood smears of the contents of each well were prepared on microscope slides. Optical microscopy was used to analyze the blood smears and establish the parasitemia of each well. Interpolation of the nonlinear curve using GraphPad Prism permitted the calculation of estimates of the sample concentrations able to inhibit 50% of parasite growth (IC50) compared to drug-free controls.

The test system of series [4] is variety of P. falciparum strains. The following applies: FCR3 and INDO strains; ref previous reports (numbers not shown); read-out: IC50; cited from earlier work.
The subject of a further series is MRC-5 human fibroblasts. Nature of the series: Cytotoxicity/cell viability assay (Alamar blue). The series is classed as cell-based. Conditions: read-out: fibroblasts IC50. The procedure:
Medical Research Council cell strain 5 (MRC-5) human fetal fibroblasts were cultivated in Dulbecco′s modified Eagle’s medium (DMEM) supplemented with 10% bovine fetal serum and 1% antibiotic at 37 °C under an atmosphere of 5% CO2. Cell viability assessment relied on the Alamar blue method. […] Doxorubicin at concentrations of 0.312, 0.625, 1.25, 2.50, 5.00, 10.0, and 20.0 μM was used as a positive control for cell death. The negative control wells received DMSO (sample diluent) at 0.1%. In preparation for the assay, this method involved plating 0.5 × 10^4 cells/well on 96 well test plates and incubating for 24 h under the same conditions used for cell culture. This initial 24 h period was necessary for cell adhesion. The assay consisted of triplicate addition of diluted samples and controls to wells followed by 48 h of incubation. For quantification of viable cells, 10 μL of 0.4% Alamar blue (Sigma-Aldrich)–which works out to an in-well concentration of 0.02%–were added to each well 3 h before the end of the treatment. Alamar blue was allowed to react for 3 h followed by quantification of the optical density (OD) of each well at an excitation wavelength of 465 nm and emission wavelength of 540 nm using an ELISA plate reader (DTX-800, Beckman Coulter). Comparison of individual sample viability OD to that of controls (blanks) afforded the cell viability. Interpolation of the nonlinear curve using GraphPad Prism software permitted the calculation of estimates of the sample IC50 values compared to drug-free controls.
Background: Resazurin is reduced to fluorescent resorufin, in cell work by metabolically active cells.

The test system of series [5] is P. falciparum K1 strain vs MRC-5 human fibroblasts. Nature of the series: Selectivity index, IC50 (human fibroblasts) ÷ IC50 (P. falciparum). The series is classed as cell-based, Plasmodium falciparum. The text has this:
Calculation of the selectivity index (SI) using the following formula afforded the relative toxicity of each sample to human fibroblasts and to P. falciparum blood stages: SI = IC50 (human fibroblasts) ÷ IC50 (P. falciparum).

For the next series, the system named is P. falciparum K1 strain. Details: method as in earlier work. The following applies: ref previous reports incl. authors' earlier work (numbers not shown); cited from earlier work.
Where [6] appears, read: read-out: P. falciparum IC50 (CI95), K1 strain, 48 h, CI95 in brackets.
Where [7] appears, read: MRC5, MRC-5, tested at 50 μg/mL for 48 h.
The mark [8] stands for this setting: K1 strain, 48 h, CI95 in brackets, read-out: P. falciparum IC50 (CI95).

Converted amounts (≈) assume the structure as drawn. “And” between values parts separate entries of the source, which are not always exact repeats. Equal values may be shown once. Where a name gives a salt, the structure may show the parent alone. Read-outs that look alike come from different tables or passages of the source.

As for `CC(=O)O[C@@H]1C[C@H]2C(C)(C)C(=O)C=C[C@]2(C)[C@H]2CC[C@@]3(C)[C@H](c4ccoc4)OC(=O)[C@H]4O[C@]43[C@@]21C` (single isomer, unassigned) [(−)-gedunin, reference compound], the half-maximal inhibitory concentration (IC50) with P. falciparum (48 h, read-out: IC50 after 48 h) is 1 µM; in the series on P. falciparum (96 h, read-out: IC50 after 96 h), 0.3 µM; in the series with P. falciparum D6 strain, 0.081 to 0.63 µM; with P. falciparum W2 strain it was 0.041 to 0.65 µM.
Consider `CC(=O)O[C@H]1[C@@H](O)[C@]2(C)[C@H](CC[C@@]3(C)[C@H](c4ccoc4)OC(=O)[C@H]4O[C@@]423)[C@@]2(C)C=CC(=O)C(C)(C)[C@H]12` [6α-acetoxy-7-deacetylgedunin, reference compound], for which the IC50 in [1] is 4 µM.
As for `CC(=O)O[C@H]1[C@@H](OC(C)=O)[C@]2(C)[C@H](CC[C@@]3(C)[C@H](c4ccoc4)OC(=O)[C@H]4O[C@@]423)[C@@]2(C)C=CC(=O)C(C)(C)[C@H]12` [6α-acetoxygedunin], in series [1], the IC50 is 2.8 µM. For the same molecule, the “toxicity to FM3A cells” value in series [2] is “toxic”.
Regarding `CCN(CC)CCCC(C)Nc1ccnc2cc(Cl)ccc12` (stereo not drawn) [chloroquine diphosphate, reference compound], the IC50 in series [3] (read-out: P. falciparum IC50 (CI95)) is 0.18 µg/mL and 350 nM.
Take `CC1(C)C(=O)C=C[C@]2(C)[C@H]3CC[C@@]4(C)[C@H](c5ccoc5)OC(=O)[C@H]5O[C@]54[C@]3(C)C(=O)C[C@@H]12` [compound 1, 7-Deacetyl-7-oxogedunin]: the IC50 with P. falciparum D6 strain was over 20.7 µM; in [4] it was 2.5 to 7.5 µM; with P. falciparum W2 strain, over 20.7 µM. For the same molecule, in series [2], the “toxicity to FM3A cells” value is recorded as “toxic”.
With `CC1(C)C(=O)C=C[C@]2(C)[C@H]3CC[C@@]4(C)[C@H](c5ccoc5)OC(=O)[C@H]5O[C@]54[C@]3(C)[C@@H](O)C[C@@H]12` [compound 3, 7-deacetyl-7-epi-gedunin], the IC50 in the series on MRC-5 human fibroblasts (MRC5, 48 h) was over 110 µM; in [3] (setting [6]) it was 3.4 µg/mL and 7.8 µM. Moreover, the “selectivity index (SI)” value in series [5] was over 15.
For the molecule `CC(=O)O[C@H]1C[C@H]2C(C)(C)C(=O)C=C[C@]2(C)[C@H]2CC[C@@]3(C)[C@H](c4ccoc4)OC(=O)[C@H]4O[C@]43[C@]12C` [compound 5, 7-epi-gedunin], the IC50 is over 100 µM with MRC-5 human fibroblasts (setting [7]); 1.1 µg/mL and 2.3 µM in series [3] (setting [8]). Further, the “selectivity index (SI)” value in series [5] is over 45.
On to `CCCC(=O)O[C@@H]1C[C@H]2C(C)(C)C(=O)C=C[C@]2(C)[C@H]2CC[C@@]3(C)[C@H](c4ccoc4)OC(=O)[C@H]4O[C@]43[C@@]21C` [compound 6, 7-deacetyl-7-butanoylgedunin], for which the IC50 was over 98 µM in the series with MRC-5 human fibroblasts (MRC5, 48 h); 2.4 µg/mL and 4.7 µM in series [3] (setting [6]). Besides, in [5], the “selectivity index (SI)” value is on record as over 21.
On to `CCCC(=O)O[C@H]1C[C@H]2C(C)(C)C(=O)C=C[C@]2(C)[C@H]2CC[C@@]3(C)[C@H](c4ccoc4)OC(=O)[C@H]4O[C@]43[C@]12C` [compound 7, 7-deacetyl-7-butanoyl-7-epi-gedunin], for which the IC50 in the series with MRC-5 human fibroblasts (MRC5, 48 h) was over 98 µM; in [3] (setting [6]), 2.4 µg/mL and 4.7 µM. Moreover, in series [5], the “selectivity index (SI)” value is on record as over 21.
As for `CCCCC(=O)O[C@@H]1C[C@H]2C(C)(C)C(=O)C=C[C@]2(C)[C@H]2CC[C@@]3(C)[C@H](c4ccoc4)OC(=O)[C@H]4O[C@]43[C@@]21C` [compound 8, 7-deacetyl-7-pentanoylgedunin], the IC50 in the series with MRC-5 human fibroblasts (setting [7]) is over 95 µM; in series [3] (setting [8]) it was 4.2 µg/mL and 8 µM. Further, the “selectivity index (SI)” value in series [5] was over 12.
As to `CCCCC(=O)O[C@H]1C[C@H]2C(C)(C)C(=O)C=C[C@]2(C)[C@H]2CC[C@@]3(C)[C@H](c4ccoc4)OC(=O)[C@H]4O[C@]43[C@]12C` [compound 9, 7-deacetyl-7-pentanoyl-7-epi-gedunin], the IC50 with MRC-5 human fibroblasts (setting [7]) is over 95 µM; in [3] (setting [8]), 3.7 µg/mL and 7 µM. The “selectivity index (SI)” value in series [5] was over 14.
Regarding `CC1(C)C(=O)C=C[C@]2(C)[C@H]3CC[C@@]4(C)[C@H](c5ccoc5)OC(=O)[C@H]5O[C@]54[C@]3(C)[C@H](O)[C@H](O)[C@@H]12` [compound 10, 7-deacetyl-6α-hydroxygedunin], the IC50 is over 100 µM in the series with MRC-5 human fibroblasts (setting [7]); 5 µM with P. falciparum K1 strain; 2.8 µg/mL and 6.1 µM in [3] (setting [8]). For the same molecule, in series [5], the “selectivity index (SI)” value is recorded as over 16.
As to `CC(=O)O[C@@H]1[C@H](O)[C@H]2C(C)(C)C(=O)C=C[C@]2(C)[C@H]2CC[C@@]3(C)[C@H](c4ccoc4)OC(=O)[C@H]4O[C@]43[C@]12C` [compound 11, 6α-hydroxygedunin], the IC50 in series [1] is 90 µM; in the series with MRC-5 human fibroblasts (setting [7]) it was over 110 µM; in [3] (setting [8]) it was 2.2 µg/mL and 4.4 µM. In addition, the “selectivity index (SI)” value in [5] is over 26.
Regarding `CCCC(=O)O[C@H]1[C@@H](O)[C@]2(C)[C@H](CC[C@@]3(C)[C@H](c4ccoc4)OC(=O)[C@H]4O[C@@]423)[C@@]2(C)C=CC(=O)C(C)(C)[C@H]12` [compound 13, 7-deacetyl-6α-butanoyloxygedunin], the IC50 with MRC-5 human fibroblasts (setting [7]) is over 100 µM; in series [3] (setting [8]), 3.7 µg/mL and 7.1 µM. In addition, in series [5], the “selectivity index (SI)” value is listed as over 15.
Regarding `CC1(C)C(=O)C=C[C@]2(C)[C@H]3CC[C@@]4(C)[C@H](c5ccoc5)OC(=O)[C@H]5O[C@]54[C@]3(C)[C@H](O)[C@H](OC(=O)c3ccccc3)[C@@H]12` [compound 14, 7-deacetyl-6α-benzoxygedunin], the IC50 in the series on MRC-5 human fibroblasts (setting [7]) was over 110 µM; in [3] (setting [8]) it was 5.1 µg/mL and 10 µM. Further, the “selectivity index (SI)” value in series [5] is recorded as over 11.
With `CCCCCCC(=O)O[C@H]1[C@@H](O)[C@]2(C)[C@H](CC[C@@]3(C)[C@H](c4ccoc4)OC(=O)[C@H]4O[C@@]423)[C@@]2(C)C=CC(=O)C(C)(C)[C@H]12` [compound 15, 7-deacetyl-6α-heptanoyloxygedunin], the half-inhibitory concentration (IC50) is over 88 µM in the series with MRC-5 human fibroblasts (setting [7]); 5.4 µg/mL and 9.4 µM in series [3] (setting [8]). In addition, the “selectivity index (SI)” value in series [5] is over 9.4.
In the case of `CC1(C)[C@H](O)CC[C@]2(C)[C@H]3CC[C@@]4(C)[C@H](c5ccoc5)OC(=O)[C@H]5O[C@]54[C@]3(C)[C@@H](O)C[C@@H]12` [compound 16, 7-deacetyl-3-deoxo-1,2-dihydro-3α-hydroxy-7-epi-gedunin], the IC50 with MRC-5 human fibroblasts (setting [7]) is over 110 µM; in series [3] (setting [8]) it was 16 µg/mL (≈ 36 µM). Also, the “selectivity index (SI)” value in series [5] was over 3.2.
On to `C=C[C@H]1C[N@@]2CC[C@H]1C[C@H]2[C@H](O)c1ccnc2ccc(OC)cc12` [quinine hydrochloride, reference compound], for which, in [3] (setting [8]), the concentration for half-maximal inhibition (IC50) was 0.14 µg/mL and 350 nM.

Usually IC50 stands for the concentration that gives 50% inhibition.
